This test concerns microorganisms usually present in the environment. In words: Counting of microorganisms on a growth plate after incubation (bacteriostatic effect of solutions). The class given is cell-based. To be noted: for cfu/plate: control 597 cfu; for Reduction % observed: vs control 597 cfu. As for the experimental part: The counting of microorganisms was carried out on a growth plate, after the incubation period (as regards the type of microorganisms, they are microorganisms usually present in the environment). […] Then, the bacteriostatic effect was evaluated of:
a solution of selenium phloroglucinol (20 ppm of selenium, i.e. corresponding to 0.002% by weight);
three solutions of zinc PCA, with a concentration of zinc of 10 ppm, 20 ppm and 30 ppm respectively (i.e. respectively corresponding to 0.001%, 0.002% and 0.003% by weight).
In order to evaluate the synergic effect between zinc and antioxidizing agent, the tests indicated above were repeated, using three solutions separately, respectively containing: selenium 20 ppm+zinc 10 ppm; selenium 20 ppm+zinc 20 ppm; selenium 20 ppm+zinc 30 ppm.

For the compound `O=C1CC[C@@H](C(=O)[O-])N1.O=C1CC[C@@H](C(=O)[O-])N1.[Zn+2]` [Zinc], the cfu/plate was 571 cfu/plate (solution 10 ppm), 550 cfu/plate (solution 20 ppm) and 491 cfu/plate (solution 30 ppm). Further, the Reduction % observed runs as follows: (solution 10 ppm) 5.1%; (solution 20 ppm) 6.0%; (solution 30 ppm) 17.1%.

Values taken from patent US11178874B2, “Articles comprising antioxidizing agents and bacteriostatic agents, and production processes thereof” (BENVIC SAS, priority 2016, dated 2021).
